According to ChEMBL document CHEMBL4507268 (2021):

Experiments:
[1] = target: T1, Serine/threonine-protein kinase ULK2 (Homo sapiens) (UniProt Q8IYT8); details: Compound concentration 1000.0 nM
T1 sequence (whole entry): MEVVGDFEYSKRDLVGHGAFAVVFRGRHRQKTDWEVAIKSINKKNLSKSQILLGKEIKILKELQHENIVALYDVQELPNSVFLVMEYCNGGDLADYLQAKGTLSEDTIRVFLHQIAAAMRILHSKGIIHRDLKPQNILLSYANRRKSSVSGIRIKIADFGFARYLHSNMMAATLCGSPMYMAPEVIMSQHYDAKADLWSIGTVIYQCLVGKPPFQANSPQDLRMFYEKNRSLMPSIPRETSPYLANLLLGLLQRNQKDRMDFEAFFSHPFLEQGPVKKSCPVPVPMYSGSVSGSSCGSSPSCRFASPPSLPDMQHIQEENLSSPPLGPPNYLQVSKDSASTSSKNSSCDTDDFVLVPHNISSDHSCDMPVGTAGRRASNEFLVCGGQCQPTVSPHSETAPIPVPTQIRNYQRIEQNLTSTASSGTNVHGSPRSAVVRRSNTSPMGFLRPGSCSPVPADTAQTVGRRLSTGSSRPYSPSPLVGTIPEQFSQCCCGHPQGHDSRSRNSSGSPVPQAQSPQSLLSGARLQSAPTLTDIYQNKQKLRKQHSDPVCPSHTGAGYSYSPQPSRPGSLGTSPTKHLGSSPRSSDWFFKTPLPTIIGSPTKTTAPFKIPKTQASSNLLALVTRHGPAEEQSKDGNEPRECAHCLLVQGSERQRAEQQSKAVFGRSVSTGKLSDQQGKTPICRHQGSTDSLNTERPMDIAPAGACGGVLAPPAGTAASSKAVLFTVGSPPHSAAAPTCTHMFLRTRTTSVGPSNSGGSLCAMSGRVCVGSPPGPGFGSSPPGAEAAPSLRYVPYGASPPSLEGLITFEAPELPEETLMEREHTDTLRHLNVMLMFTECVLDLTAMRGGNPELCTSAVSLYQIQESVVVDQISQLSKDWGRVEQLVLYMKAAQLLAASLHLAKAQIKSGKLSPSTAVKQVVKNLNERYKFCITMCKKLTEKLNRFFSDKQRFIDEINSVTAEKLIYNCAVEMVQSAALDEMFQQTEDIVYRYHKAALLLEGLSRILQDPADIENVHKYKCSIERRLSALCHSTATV

[2] = target: Interleukin-1 receptor-associated kinase 3 (Homo sapiens) (UniProt Q9Y616); details: Compound concentration 1000.0 nM
Sequence of Interleukin-1 receptor-associated kinase 3 (Homo sapiens) (Q9Y616 whole entry): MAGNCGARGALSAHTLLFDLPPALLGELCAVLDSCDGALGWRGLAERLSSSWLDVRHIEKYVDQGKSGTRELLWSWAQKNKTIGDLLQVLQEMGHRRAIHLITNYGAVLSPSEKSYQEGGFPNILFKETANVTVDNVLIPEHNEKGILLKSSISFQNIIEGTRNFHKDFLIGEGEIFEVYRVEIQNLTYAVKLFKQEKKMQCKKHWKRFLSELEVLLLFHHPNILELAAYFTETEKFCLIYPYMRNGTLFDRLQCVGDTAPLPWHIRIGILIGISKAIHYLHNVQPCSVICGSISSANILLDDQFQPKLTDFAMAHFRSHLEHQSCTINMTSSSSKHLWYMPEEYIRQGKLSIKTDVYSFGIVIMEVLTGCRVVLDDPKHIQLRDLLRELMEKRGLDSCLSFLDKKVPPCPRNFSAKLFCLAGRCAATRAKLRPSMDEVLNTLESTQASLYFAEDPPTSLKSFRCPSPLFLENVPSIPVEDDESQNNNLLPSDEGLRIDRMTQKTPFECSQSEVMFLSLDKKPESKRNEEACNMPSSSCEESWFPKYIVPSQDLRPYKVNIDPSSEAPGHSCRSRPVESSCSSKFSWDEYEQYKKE

[3] = target: Maternal embryonic leucine zipper kinase (Homo sapiens) (UniProt Q14680); details: Compound concentration 1000.0 nM
Sequence of Maternal embryonic leucine zipper kinase (Homo sapiens) (Q14680 whole entry, looked up): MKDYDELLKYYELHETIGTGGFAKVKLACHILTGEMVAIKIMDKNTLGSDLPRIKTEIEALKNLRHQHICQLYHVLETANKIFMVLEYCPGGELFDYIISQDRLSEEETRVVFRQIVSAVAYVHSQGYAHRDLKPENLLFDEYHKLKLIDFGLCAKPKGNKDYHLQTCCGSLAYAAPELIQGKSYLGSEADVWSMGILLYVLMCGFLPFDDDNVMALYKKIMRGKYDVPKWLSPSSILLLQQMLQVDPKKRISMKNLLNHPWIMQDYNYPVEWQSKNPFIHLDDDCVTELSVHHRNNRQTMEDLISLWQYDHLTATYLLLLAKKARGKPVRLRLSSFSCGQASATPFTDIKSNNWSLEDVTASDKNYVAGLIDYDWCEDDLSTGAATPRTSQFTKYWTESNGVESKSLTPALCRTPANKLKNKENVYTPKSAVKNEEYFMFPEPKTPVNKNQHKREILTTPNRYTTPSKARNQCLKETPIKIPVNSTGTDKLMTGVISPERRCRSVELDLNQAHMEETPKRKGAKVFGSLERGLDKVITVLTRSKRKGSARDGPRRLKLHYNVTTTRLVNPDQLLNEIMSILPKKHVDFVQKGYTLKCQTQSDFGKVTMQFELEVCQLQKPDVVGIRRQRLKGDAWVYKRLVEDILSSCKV

[4] = target: Serine/threonine-protein kinase PknB (Mycobacterium tuberculosis) (UniProt P9WI81); details: Compound concentration 1000.0 nM
[5] = target: Uncharacterized serine/threonine-protein kinase SBK3 (Homo sapiens) (UniProt P0C264); details: Compound concentration 1000.0 nM
Sequence of Uncharacterized serine/threonine-protein kinase SBK3 (Homo sapiens) (P0C264 whole entry): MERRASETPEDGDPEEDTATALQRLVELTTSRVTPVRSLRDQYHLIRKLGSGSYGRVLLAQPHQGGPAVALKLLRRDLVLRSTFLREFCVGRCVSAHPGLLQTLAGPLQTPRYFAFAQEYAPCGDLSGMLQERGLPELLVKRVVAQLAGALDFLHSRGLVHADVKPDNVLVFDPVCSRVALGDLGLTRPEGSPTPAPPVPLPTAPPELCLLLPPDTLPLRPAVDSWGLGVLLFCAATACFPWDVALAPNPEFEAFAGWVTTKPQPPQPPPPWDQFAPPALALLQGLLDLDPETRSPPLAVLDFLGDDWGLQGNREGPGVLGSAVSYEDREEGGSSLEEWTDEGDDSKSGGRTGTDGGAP

[6] = target: T2, Mitogen-activated protein kinase 13 (Homo sapiens) (UniProt O15264); details: Compound concentration 1000.0 nM
T2 sequence (whole entry): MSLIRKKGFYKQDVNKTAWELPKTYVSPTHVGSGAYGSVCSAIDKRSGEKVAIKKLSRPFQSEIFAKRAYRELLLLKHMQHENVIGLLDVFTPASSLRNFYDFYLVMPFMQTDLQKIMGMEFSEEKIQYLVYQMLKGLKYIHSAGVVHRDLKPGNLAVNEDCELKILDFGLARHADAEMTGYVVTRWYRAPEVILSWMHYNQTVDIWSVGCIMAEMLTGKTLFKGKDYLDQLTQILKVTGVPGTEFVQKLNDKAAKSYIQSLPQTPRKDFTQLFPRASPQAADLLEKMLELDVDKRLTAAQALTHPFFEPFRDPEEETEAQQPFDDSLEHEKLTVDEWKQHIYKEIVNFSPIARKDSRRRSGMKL

[7] = target: T3, cGMP-dependent protein kinase 1 (Homo sapiens) (UniProt Q13976); details: Compound concentration 1000.0 nM
T3 sequence (whole entry): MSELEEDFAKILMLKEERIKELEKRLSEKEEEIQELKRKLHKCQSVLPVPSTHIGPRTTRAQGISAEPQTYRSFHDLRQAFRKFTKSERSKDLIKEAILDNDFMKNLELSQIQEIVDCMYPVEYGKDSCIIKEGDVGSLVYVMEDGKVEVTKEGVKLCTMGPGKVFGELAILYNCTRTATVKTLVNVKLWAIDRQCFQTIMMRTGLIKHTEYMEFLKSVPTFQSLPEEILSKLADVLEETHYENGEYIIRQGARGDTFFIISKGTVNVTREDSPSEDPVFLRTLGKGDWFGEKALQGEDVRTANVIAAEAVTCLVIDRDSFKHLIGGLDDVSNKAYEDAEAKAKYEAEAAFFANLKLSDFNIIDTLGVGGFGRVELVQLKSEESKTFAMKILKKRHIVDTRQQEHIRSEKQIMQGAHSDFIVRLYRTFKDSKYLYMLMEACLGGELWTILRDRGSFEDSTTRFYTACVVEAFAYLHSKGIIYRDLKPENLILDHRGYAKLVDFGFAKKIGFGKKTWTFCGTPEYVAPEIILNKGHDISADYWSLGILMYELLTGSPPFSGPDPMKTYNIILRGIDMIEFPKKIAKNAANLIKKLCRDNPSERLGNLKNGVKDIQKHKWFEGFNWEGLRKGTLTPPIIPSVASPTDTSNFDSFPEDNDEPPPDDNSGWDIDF

[8] = target: Muscarinic acetylcholine receptor M5 (Homo sapiens) (UniProt P08912); details: Compound concentration 10.0 uM
[9] = target: Cyclin-dependent kinase 11A (Homo sapiens) (UniProt Q9UQ88); details: Compound concentration 1000.0 nM
Sequence of Cyclin-dependent kinase 11A (Homo sapiens) (Q9UQ88 whole entry): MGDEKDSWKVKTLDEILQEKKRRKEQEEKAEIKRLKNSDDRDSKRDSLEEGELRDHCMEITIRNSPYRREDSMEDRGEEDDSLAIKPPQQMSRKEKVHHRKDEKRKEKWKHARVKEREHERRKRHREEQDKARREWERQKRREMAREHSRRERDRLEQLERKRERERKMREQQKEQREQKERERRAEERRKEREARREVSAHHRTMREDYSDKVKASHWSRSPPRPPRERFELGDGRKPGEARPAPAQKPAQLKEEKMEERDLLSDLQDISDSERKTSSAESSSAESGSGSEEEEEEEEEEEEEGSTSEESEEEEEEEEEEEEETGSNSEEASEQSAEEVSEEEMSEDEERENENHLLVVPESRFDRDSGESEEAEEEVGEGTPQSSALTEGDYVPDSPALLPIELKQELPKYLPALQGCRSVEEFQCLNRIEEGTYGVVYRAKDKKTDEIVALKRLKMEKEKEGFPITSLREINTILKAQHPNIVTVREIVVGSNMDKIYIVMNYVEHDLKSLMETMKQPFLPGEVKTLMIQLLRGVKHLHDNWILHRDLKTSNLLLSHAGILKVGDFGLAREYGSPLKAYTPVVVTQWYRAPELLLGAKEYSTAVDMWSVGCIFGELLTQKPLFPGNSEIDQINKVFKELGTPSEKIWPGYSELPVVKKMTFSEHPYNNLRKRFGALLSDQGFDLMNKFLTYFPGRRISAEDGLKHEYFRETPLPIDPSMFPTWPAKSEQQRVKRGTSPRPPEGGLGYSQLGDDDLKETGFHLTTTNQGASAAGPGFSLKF

[10] = system: Tyrosine-protein kinase ABL1 (Homo sapiens), P00519 [F317L]; details: Compound concentration 1000.0 nM
[11] = target: Vascular endothelial growth factor receptor 2 (Homo sapiens) (UniProt P35968); details: Compound concentration 1000.0 nM
Sequence of Vascular endothelial growth factor receptor 2 (Homo sapiens) (P35968 whole entry): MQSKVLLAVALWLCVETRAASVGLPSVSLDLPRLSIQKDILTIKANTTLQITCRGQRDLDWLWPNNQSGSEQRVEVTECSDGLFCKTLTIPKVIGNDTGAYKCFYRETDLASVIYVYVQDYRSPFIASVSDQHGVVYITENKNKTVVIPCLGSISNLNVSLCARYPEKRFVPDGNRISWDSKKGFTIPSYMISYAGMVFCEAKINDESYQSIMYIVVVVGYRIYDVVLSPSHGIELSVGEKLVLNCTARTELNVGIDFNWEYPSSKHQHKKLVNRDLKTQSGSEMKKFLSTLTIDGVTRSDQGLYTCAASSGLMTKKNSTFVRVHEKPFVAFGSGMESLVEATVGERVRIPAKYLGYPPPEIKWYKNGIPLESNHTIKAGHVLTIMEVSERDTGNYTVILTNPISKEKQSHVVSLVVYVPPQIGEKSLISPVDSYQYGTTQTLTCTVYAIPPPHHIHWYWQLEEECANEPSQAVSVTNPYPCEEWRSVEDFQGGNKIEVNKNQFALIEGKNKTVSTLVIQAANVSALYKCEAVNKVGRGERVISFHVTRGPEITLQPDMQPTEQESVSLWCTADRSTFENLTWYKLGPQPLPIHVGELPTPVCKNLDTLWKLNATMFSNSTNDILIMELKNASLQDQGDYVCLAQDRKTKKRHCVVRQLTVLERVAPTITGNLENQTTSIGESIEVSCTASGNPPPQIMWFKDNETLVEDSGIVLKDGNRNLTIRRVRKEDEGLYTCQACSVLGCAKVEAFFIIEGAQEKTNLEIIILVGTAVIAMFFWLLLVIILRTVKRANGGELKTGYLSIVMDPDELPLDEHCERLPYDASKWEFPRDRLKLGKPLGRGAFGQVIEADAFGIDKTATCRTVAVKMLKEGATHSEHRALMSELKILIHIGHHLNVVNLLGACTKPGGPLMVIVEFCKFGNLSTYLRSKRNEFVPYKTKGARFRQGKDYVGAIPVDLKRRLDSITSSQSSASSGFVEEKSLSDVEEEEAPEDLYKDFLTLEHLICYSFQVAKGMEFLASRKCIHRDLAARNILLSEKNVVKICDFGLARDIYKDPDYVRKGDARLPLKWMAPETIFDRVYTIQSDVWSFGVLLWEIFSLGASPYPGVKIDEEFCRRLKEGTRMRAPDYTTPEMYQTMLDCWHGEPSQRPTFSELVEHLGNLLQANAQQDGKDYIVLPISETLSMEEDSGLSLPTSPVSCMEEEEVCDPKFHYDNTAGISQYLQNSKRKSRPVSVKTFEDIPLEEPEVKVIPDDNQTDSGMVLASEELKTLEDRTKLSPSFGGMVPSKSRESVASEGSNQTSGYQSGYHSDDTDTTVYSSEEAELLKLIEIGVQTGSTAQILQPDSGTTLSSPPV

[12] = target: Kappa-type opioid receptor (Homo sapiens) (UniProt P41145); details: Compound concentration 10.0 uM
[13] = target: Serine/threonine-protein kinase/endoribonuclease IRE1 (Homo sapiens) (UniProt O75460); details: Compound concentration 1000.0 nM
Sequence of Serine/threonine-protein kinase/endoribonuclease IRE1 (Homo sapiens) (O75460 19-977 limits assumed): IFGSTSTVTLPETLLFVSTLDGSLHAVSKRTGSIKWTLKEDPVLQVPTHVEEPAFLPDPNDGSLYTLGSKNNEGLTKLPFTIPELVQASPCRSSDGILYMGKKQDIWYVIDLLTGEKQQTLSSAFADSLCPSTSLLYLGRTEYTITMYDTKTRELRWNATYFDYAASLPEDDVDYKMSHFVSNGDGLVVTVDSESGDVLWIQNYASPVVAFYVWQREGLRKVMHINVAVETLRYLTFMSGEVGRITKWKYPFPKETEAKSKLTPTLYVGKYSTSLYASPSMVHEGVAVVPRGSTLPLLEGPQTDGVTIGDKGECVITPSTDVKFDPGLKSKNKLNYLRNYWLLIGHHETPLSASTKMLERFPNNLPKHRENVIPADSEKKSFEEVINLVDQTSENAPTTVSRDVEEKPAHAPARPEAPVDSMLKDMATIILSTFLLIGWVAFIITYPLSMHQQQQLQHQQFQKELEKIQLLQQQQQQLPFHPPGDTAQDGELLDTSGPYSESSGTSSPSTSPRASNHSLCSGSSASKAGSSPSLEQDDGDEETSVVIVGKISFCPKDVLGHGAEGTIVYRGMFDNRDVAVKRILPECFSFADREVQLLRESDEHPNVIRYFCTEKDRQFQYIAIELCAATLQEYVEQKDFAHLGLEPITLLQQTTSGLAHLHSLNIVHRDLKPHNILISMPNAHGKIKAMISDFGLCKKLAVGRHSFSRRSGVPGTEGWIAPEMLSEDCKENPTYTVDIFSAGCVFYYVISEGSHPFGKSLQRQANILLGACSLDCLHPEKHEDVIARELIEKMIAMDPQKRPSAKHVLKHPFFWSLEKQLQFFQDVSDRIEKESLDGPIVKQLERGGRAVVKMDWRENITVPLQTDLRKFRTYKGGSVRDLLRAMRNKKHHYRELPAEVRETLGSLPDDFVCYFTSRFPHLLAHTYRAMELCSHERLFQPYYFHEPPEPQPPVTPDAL

[14] = target: Protein kinase C eta type (Homo sapiens) (UniProt P24723); details: Compound concentration 1000.0 nM

Cc1nc(C2CCN(C(=O)c3ccc(OC(F)(F)F)cc3N)CC2)c2ncc(N3CCN(C)CC3)cc2n1 [BAY-693]
inactive: residual activity [1] 100% | residual activity [2] 99% | residual activity [3] 93% | residual activity [4] 100% | residual activity [5] 77% | residual activity [6] 100% | residual activity [7] 100% | inhibition [8] -3.81% | residual activity [9] 100% | residual activity [10] 96% | residual activity [11] 93% | inhibition [12] 21.2% | residual activity [13] 100% | residual activity [14] 88%

CN1CCN(c2cnc3c(C4CCN(C(=O)c5ccc(OC(F)(F)F)cc5N)CC4)ncnc3c2)CC1 [BAY-885]
inactive: residual activity [1] 100% | residual activity [2] 100% | residual activity [3] 85% | residual activity [4] 97% | residual activity [5] 72% | residual activity [6] 100% | residual activity [7] 83% | inhibition [8] 2.02% | residual activity [9] 61% | residual activity [10] 100% | residual activity [11] 100% | inhibition [12] 9.37% | residual activity [13] 99% | residual activity [14] 86%
